According to US6114334A, “Piperazine derivatives as therapeutic agents” (Knoll Aktiengesellschaft, priority 1995, dated 2000):

How the values were obtained:
5-HT1A receptors = target: T1, 5-HT1A receptors (Rattus norvegicus, UniProt P19327); assay: inhibition of [3H]8-OH-DPAT binding to 5-HT1A receptors in vitro; set-up: species or system rat (male Sprague-Dawley, hippocampal tissue); conditions: rat hippocampus; for Ki: [3H]8-OH-DPAT 2 nM, 25° C., 30 min
T1 sequence (P19327 1-422): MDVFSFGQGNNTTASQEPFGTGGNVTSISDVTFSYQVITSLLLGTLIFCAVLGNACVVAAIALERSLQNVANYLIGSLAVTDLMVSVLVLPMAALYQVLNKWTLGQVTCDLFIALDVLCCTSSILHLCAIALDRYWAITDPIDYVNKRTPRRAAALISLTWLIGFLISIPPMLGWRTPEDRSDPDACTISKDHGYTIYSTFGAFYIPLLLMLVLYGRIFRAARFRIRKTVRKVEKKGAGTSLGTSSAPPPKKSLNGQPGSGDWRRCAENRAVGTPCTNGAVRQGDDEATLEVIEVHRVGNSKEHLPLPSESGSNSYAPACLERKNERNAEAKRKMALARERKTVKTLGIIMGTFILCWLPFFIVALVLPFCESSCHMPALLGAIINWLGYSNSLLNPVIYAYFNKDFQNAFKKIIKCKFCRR
Protocol: Hippocampal tissue from the brains of male Sprague-Dawley rats (Charles River; weight range 150-250 g) was homogenised in ice-cold 50 mM Tris-HCl buffer (pH 7.7 when measured at 25° C., 1:40 w/v) and centrifuged at 30,000 g at 4° C. for 10 minutes. The pellet was rehomogenised in the same buffer, incubated at 37° C. for 10 minutes and centrifuged at 30,000 g at 4° C. for 10 minutes. The final pellet was resuspended in 50 mM Tris-HCl buffer (pH 7.7) containing 4 mM CaCl2. 0.1% L-ascorbic acid and 10 μM pargyline hydrochloride (equivalent to 6.25 mg wet weight of tissue/ml) and used immediately in the binding assay. Aliquots (400 μl; equivalent to 2.5 mg wet weight of tissue/tube) of this suspension were added to tubes containing the ligand (50 μl; 2 nM) and distilled water (50 μl; total binding) or 5-HT (50 μl; 10 μM; non-specific binding) or test compound (50 μl; at a single concentration of 10^-6 M or at 10 concentrations ranging from 10^-11 -10^-3 M). The ligand was [^3 H]8-hydroxy-2-(dipropylamino)tetralin ([^3 H]8-OH-DPAT) and the mixture was incubated at 25° C. for 30 minutes before the incubation was terminated by rapid filtration.

α2A-adrenoceptors = target: T2, α2A-adrenoceptors (Homo sapiens, UniProt P08913); assay: inhibition of tritiated RX 821002 binding to α2A-adrenoceptors in vitro; set-up: species or system human (cerebral cortex post-mortem); conditions: human cerebral cortex; for Ki: [3H]RX 821002 0.2 nM, 0° C., 75 min; for inhibition at 1 µM: 10^-6 M, [3H]RX 821002, read-out: % displacement at 10^-6 M, α2A
T2 construct: Human cerebral cortex obtained at post-mortem; from tissue; host or cells: human cerebral cortex, post-mortem
T2 sequence (P08913 1-465): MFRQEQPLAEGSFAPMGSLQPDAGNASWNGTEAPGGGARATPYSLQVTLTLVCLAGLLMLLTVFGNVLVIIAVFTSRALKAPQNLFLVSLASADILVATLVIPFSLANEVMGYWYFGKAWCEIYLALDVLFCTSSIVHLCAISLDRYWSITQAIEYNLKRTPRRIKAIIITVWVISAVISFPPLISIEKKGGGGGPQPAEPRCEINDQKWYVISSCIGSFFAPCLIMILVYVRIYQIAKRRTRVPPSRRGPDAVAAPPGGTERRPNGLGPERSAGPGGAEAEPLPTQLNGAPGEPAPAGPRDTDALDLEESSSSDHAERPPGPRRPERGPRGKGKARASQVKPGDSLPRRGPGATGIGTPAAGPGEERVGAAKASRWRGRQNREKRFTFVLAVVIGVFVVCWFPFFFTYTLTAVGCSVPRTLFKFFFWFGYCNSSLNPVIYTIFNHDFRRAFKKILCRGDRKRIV
Protocol: Human cerebral cortex obtained at post-mortem was homogenised in ice-cold 0.25M sucrose (1:30 w/v) and centrifuged at 1,000 g at 4° C. for 12 minutes. The supernatant was stored on ice and the pellet was rehomogenised in 0.25M sucrose (1:15 w/v) and centrifuged at 850 g at 4° C. for 12 minutes. Combined supernatants were diluted with 5 mM Tris-HCl (pH 7.5) containing 5 mM ethylenediamine tetraacetic acid (EDTA), readjusted to pH 7.5 (at 25° C.) with 1M sodium hydroxide to 1:80 w/v, and centrifuged at 11,000 g at 4° C. for 10 minutes. The resulting pellet was resuspended in 50 mM Tris-HCl (pH 7.5) containing 5.68 mM L-ascorbic acid and 0.5 mM EDTA, readjusted to pH 7.5 (at 25° C.) with 1M sodium hydroxide to 1:80 w/v, and centrifuged at 11,000 g for 10 minutes. The pellet was stored at -80° C. On the day of the assay the pellet was thawed, resuspended in 50 mM Tris-HCl (pH 7.5) containing 5.68 mM L-ascorbic acid and 5 mM EDTA to 1:80 w/v and centrifuged at 11,000 g for 10 minutes. The final pellet was resuspended in 50 mM Tris-HCl (pH 7.5) containing 5.68 mM L-ascorbic acid and 5 mM EDTA (equivalent to 25 mg wet weight of tissue/ml).
Aliquots (400 μl; equivalent to 10 mg wet weight of tissue/tube) of this suspension were added to tubes containing the ligand (50 μl; 0.2 nM) and distilled water (50 μl; total binding) or phentolamine (50 μl; 50 μM; non-specific binding) or test compound (50 μl; at a single concentration of 10^-6 M or at 10 concentrations ranging from 10^-11 -10^-3 M). The ligand was tritiated RX 821002 (2-(2-methoxy-1,4-[6,7(n)-^3 H]benzodioxan-2-yl)-2-imidazoline) and the mixture was incubated at 0° C. for 75 minutes before the incubation was terminated by rapid filtration.
The filters were washed with ice-cold Tris-HCl buffer and dried. The filters were punched out into vials, scintillation fluid added and radioactivity determined by liquid scintillation counting. The percentage displacement of specific binding of the tritiated ligand was calculated for the single concentration (10^-6 M) of test compound. Displacement curves were then produced for those compounds which displaced ≥50% of specific binding of the tritiated ligand at 10^-6 M using a range of concentrations of the compound. The concentration which gave 50% inhibition of specific binding (IC50) was obtained from the curve. The inhibition coefficient Ki was then calculated using the formula [formula] in which [ligand] is the concentration of the tritiated ligand used and KD is the equilibrium dissociation constant for the ligand.

α2D-adrenoceptors = target: T3, α2D-adrenoceptors (Rattus norvegicus, UniProt P22909); assay: inhibition of tritiated idazoxan binding to α2D-adrenoceptors in vitro; set-up: species or system rat (male Charles River CD, frontal cortical tissue); conditions: rat frontal cortex; for Ki: [3H]idazoxan 1 nM, 0° C., 75 min; for inhibition at 1 µM: 10^-6 M, [3H]idazoxan, read-out: % displacement at 10^-6 M, α2D
T3 sequence (P22909 1-465): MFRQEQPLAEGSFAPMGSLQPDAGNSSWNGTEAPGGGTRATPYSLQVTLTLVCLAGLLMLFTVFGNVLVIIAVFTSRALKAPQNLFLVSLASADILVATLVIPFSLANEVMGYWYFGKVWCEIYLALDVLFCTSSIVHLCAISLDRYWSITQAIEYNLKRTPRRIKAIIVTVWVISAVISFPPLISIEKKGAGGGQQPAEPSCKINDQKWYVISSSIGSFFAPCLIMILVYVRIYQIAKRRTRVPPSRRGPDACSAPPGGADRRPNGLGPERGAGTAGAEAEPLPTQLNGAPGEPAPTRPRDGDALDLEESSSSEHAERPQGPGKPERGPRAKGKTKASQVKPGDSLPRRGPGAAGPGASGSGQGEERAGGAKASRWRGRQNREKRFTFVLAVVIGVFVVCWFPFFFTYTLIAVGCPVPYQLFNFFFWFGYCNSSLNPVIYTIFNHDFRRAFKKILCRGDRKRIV

α1-adrenoceptors = assay: inhibition of 7-methoxy-[3H]prazosin binding to α1-adrenoceptors in vitro; set-up: species or system rat (male Charles River CD, whole cortical tissue); conditions: rat whole cortex, 30 min; for Ki: 7-methoxy-[3H]prazosin 0.1 nM, 30° C.
In short: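 Male CD rat cortical membranes in 50 mM Tris-HCl pH 7.6 were incubated 30 min at 30 °C with 7-methoxy-[3H]prazosin (0.1 nM as added), with 5 μM phentolamine (as added) defining non-specific binding, then filtered and counted. Compounds were tested at 10^-6 M for % displacement or at 10^-11–10^-3 M for IC50, and Ki was derived from IC50, ligand concentration and KD.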

D2 dopamine receptors = D2 dopamine receptors (Rattus norvegicus, UniProt P61169); assay: inhibition of tritiated (S)-sulpiride binding to D2 dopamine receptors in vitro; set-up: species or system rat (male Charles River CD, striatal tissue); conditions: rat striatum, tritiated (S)-sulpiride 1 nM, 4° C., 40 min
D2 dopamine receptors, sequence (P61169 whole entry): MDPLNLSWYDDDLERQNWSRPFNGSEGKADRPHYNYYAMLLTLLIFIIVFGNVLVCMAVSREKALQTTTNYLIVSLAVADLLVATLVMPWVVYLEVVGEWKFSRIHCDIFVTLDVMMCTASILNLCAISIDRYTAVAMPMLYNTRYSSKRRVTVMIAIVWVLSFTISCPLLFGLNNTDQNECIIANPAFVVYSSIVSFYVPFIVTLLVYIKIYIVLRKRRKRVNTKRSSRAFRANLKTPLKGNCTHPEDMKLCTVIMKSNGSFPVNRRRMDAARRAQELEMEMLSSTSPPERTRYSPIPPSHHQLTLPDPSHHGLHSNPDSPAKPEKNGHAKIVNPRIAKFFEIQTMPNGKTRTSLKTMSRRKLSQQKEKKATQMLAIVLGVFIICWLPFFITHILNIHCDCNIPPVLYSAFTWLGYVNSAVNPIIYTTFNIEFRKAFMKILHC

Row | SMILES | Ki (5-HT1A receptors) [nM] | Ki (α2A-adrenoceptors) [nM] | Ki (α2D-adrenoceptors) [nM] | Ki (α1-adrenoceptors) [nM] | Ki (D2 dopamine receptors) [nM] | inhibition at 1 µM (α2A-adrenoceptors) [%] | inhibition at 1 µM (α2D-adrenoceptors) [%] | inhibition at 1 µM (5-HT1A receptors; 10^-6 M, [3H]8-OH-DPAT, read-out: % displacement at 10^-6 M, 5-HT1A) [%] | % displacement at 10^-6 M, α1 (α1-adrenoceptors; 10^-6 M, 7-methoxy-[3H]prazosin, 1 µM) [%]
1 | Cn1nc(C2CC2)c(CN2CCN(c3cccc4c3OCCO4)CC2)c1N [Example 25, 5-Amino-4-[4-(1,4-benzodioxan-5-yl)piperazin-1-ylmethyl]-3-cyclopropyl-1-methylpyrazole] | 15 | 14 | 35 | 126 | > 500 |  |  |  | 
2 | CC1(CN2CCN(c3cccc(C(F)(F)F)c3)CC2)N=C(c2ccccc2)NC1=O (stereo not shown) [Example 41, 4-Methyl-2-phenyl-4-{4-[3-(trifluoromethyl)phenyl]piperazin-1-ylmethyl}-2-imidazolin-5-one] | 224 |  | > 500 | > 500 | 129 | 57 |  |  | 
3 | C=CCn1c(N)c(CN2CCN(c3cccc4c3OCCO4)CC2)c(=O)n1-c1ccccc1 [Example 6, 2-Allyl-3-amino-4-[4-(1,4-benzodioxan-5-yl)piperazin-1-ylmethyl]-1-phenyl-3-pyrazolin-5-one] | 22 |  | 111 | 45 | 139 | 86 |  |  | 
4 | C=CCN1C(=O)C(C)(CN2CCN(c3cccc4c3OCCO4)CC2)N=C1c1cccnc1 (stereo not shown) [Example 44, 1-allyl-4-[4-(1,4-benzodioxan-5-yl)piperazin-1-ylmethyl]-4-methyl-2-(3-pyridyl)-2-imidazolin-5-one] | 15 |  |  | > 500 | 345 | 76 | 54 |  | 
5 | CC(C)Oc1ccccc1N1CCN(Cc2c(C3CCC3)nn(C)c2N)CC1 [Example 28, 5-Amino-3-cyclobutyl-4-[4-(2-isopropoxyphenyl)piperazin-1-ylmethyl]-1-methylpyrazole] | 40 |  |  | 27 | 25 | 99 | 93 |  | 
6 | Cn1nc(C2CCC2)c(CN2CCN(c3cccc4c3OCCO4)CC2)c1N [Example 30, 5-Amino-4-[4-(1,4-benzodioxan-5-yl)piperazin-1-ylmethyl]-3-cyclobutyl-1-methylpyrazole] | 18 |  |  | 64 | 265 | 99 | 94 |  | 
7 | CC1(CN2CCN(c3cccc4c3OCCO4)CC2)N=C(c2ccccc2)NC1=O (stereo not shown) [Example 38, 4-[4-(1,4-benzodioxan-5-yl)piperazin-1-ylmethyl]-4-methyl-2-phenyl-2-imidazolin-5-one] | 22 | 196 | 199 | 473 | 281 |  |  |  | 

The next lines start with the values.

Row | Ki (5-HT1A receptors) [nM] | Ki (α2A-adrenoceptors) [nM] | Ki (α2D-adrenoceptors) [nM] | Ki (α1-adrenoceptors) [nM] | Ki (D2 dopamine receptors) [nM] | inhibition at 1 µM (α2A-adrenoceptors) [%] | inhibition at 1 µM (α2D-adrenoceptors) [%] | inhibition at 1 µM (5-HT1A receptors; 10^-6 M, [3H]8-OH-DPAT, read-out: % displacement at 10^-6 M, 5-HT1A) [%] | % displacement at 10^-6 M, α1 (α1-adrenoceptors; 10^-6 M, 7-methoxy-[3H]prazosin, 1 µM) [%] | SMILES
8 | 58 |  | 32 | 21 | 451 | 89 |  |  |  | Nc1c(CN2CCN(c3cccc4c3OCCO4)CC2)c(C2CCCC2)nn1-c1ccccc1 [Example 21, 5-Amino-4-[4-(1,4-benzodioxan-5-yl)piperazin-1-ylmethyl]-3-cyclopentyl-1-phenylpyrazole]
9 | 16 |  | 121 | 41 | 176 | 73 |  |  |  | CCCn1c(N)c(CN2CCN(c3cccc4c3OCCO4)CC2)c(=O)n1-c1ccccc1 [Example 5, 3-Amino-4-[4-(1,4-benzodioxan-5-yl)piperazin-1-ylmethyl]-1-phenyl-2-propyl-3-pyrazolin-5-one]
10 | 21 |  | 156 | 57 | > 500 | 95 |  |  |  | Cn1nc(-c2ccccc2)c(CN2CCN(c3cccc4c3OCCO4)CC2)c1N [Example 13, 5-Amino-4-[4-(1,4-benzodioxan-5-yl)piperazin-1-ylmethyl]-1-methyl-3-phenylpyrazole]
11 | 26 | 29 | 307 | 401 | 196 |  |  |  |  | Cn1c(N)c(CN2CCN(c3cccc4c3OCCO4)CC2)c(=O)n1-c1ccccc1 [Example 2, 3-amino-4-[4-(1,4-benzodioxan-5-yl)piperazin-1-ylmethyl]-2-methyl-1-phenyl-3-pyrazolin-5-one]
12 | 129 |  |  | 44 | 320 | 91 | 92 |  |  | N#Cc1ccc(-n2nc(C3CC3)c(CN3CCN(c4cccc5c4OCCO5)CC3)c2N)cc1 [Example 32, 4-{5-Amino-4-[4-(1,4-benzodioxan-5-yl)piperazin-1-ylmethyl]-3-cyclopropylpyrazol-1-yl}benzonitrile]
13 |  |  |  |  | > 500 | 99 | 81 | 74 | 80 | Nc1c(CN2CCN(c3cccc(Cl)c3)CC2)c(C2CC2)nn1-c1ccccc1 [Example 14, 5-Amino-4-[4-(3-chlorophenyl)piperazin-1-ylmethyl]-3-cyclopropyl-1-phenylpyrazole]
14 | 16 |  | 4.9 | 7.1 | > 500 | 99 |  |  |  | Nc1c(CN2CCN(c3cccc4ccoc34)CC2)c(C2CC2)nn1-c1ccccc1 [Example 27, 5-Amino-4-[4-(7-benzo[b]furanyl)piperazin-1-ylmethyl]-3-cyclopropyl-1-phenylpyrazole]
